Experimental data taken from ChEMBL document CHEMBL4308841, “Synthesis, in vitro antiproliferative activity, and kinase inhibitory effects of pyrazole-containing diarylureas and diarylamides” (Eur J Med Chem, 2018).

What was measured:
[1] = tested on: NCI-H522; experiment: Growth inhibition of human NCI-H522 cells assessed as cell growth at 10 uM incubated for 48 hrs by sulforhodamine B assay relative to control; assay type: functional; conditions: NCI-H522, 48 h, read-out: Activity
[2] = tested on: NCI-H522; experiment: Growth inhibition of human NCI-H522 cells incubated for 48 hrs by sulforhodamine B assay; assay type: functional, cell-based; conditions: NCI-H522, 48 h
[3] = tested on: HT-29; experiment: Growth inhibition of human HT-29 cells incubated for 48 hrs by sulforhodamine B assay; assay type: functional, cell-based; conditions: HT-29, 48 h
[4] = tested on: M14; experiment: Growth inhibition of human M14 cells incubated for 48 hrs by sulforhodamine B assay; assay type: functional, cell-based; conditions: M14, 48 h
[5] = tested on: SK-MEL-2; experiment: Growth inhibition of human SK-MEL-2 cells incubated for 48 hrs by sulforhodamine B assay; assay type: functional, cell-based; conditions: SK-MEL-2, 48 h
[6] = tested on: OVCAR-3; experiment: Growth inhibition of human OVCAR3 cells incubated for 48 hrs by sulforhodamine B assay; assay type: functional, cell-based; conditions: OVCAR-3, 48 h
[7] = tested on: A498; experiment: Growth inhibition of human A498 cells incubated for 48 hrs by sulforhodamine B assay; assay type: functional, cell-based; conditions: A498, 48 h
[8] = tested on: HL-60(TB); experiment: Growth inhibition of human HL-60(TB) cells assessed as cell growth at 0.01 uM incubated for 48 hrs by sulforhodamine B assay relative to control; assay type: functional; conditions: HL-60, 48 h, read-out: Activity
[9] = tested on: HOP-62; experiment: Growth inhibition of human HOP62 cells assessed as cell growth at 0.01 uM incubated for 48 hrs by sulforhodamine B assay relative to control; assay type: functional; conditions: HOP-62, 48 h, read-out: Activity
[10] = tested on: MDA-MB-435; experiment: Growth inhibition of human MDA-MB-435 cells assessed as cell growth at 0.01 uM incubated for 48 hrs by sulforhodamine B assay relative to control; assay type: functional; conditions: MDA-MB-435, 48 h, read-out: Activity
[11] = tested on: OVCAR-8; experiment: Growth inhibition of human OVCAR8 cells assessed as cell growth at 0.01 uM incubated for 48 hrs by sulforhodamine B assay relative to control; assay type: functional; conditions: OVCAR-8, 48 h, read-out: Activity
[12] = tested on: K562; experiment: Growth inhibition of human K562 cells assessed as cell growth at 0.1 uM incubated for 48 hrs by sulforhodamine B assay relative to control; assay type: functional; conditions: K562, 48 h, read-out: Activity
[13] = tested on: MOLT-4; experiment: Growth inhibition of human MOLT4 cells assessed as cell growth at 0.1 uM incubated for 48 hrs by sulforhodamine B assay relative to control; assay type: functional; conditions: MOLT-4, 48 h, read-out: Activity
[14] = tested on: SR; experiment: Growth inhibition of human SR cells assessed as cell growth at 0.1 uM incubated for 48 hrs by sulforhodamine B assay relative to control; assay type: functional; conditions: read-out: Activity
[15] = tested on: HCC 2998; experiment: Growth inhibition of human HCC2998 cells assessed as cell growth at 0.1 uM incubated for 48 hrs by sulforhodamine B assay relative to control; assay type: functional; conditions: HCC 2998, 48 h, read-out: Activity
[16] = tested on: HCT-15; experiment: Growth inhibition of human HCT15 cells assessed as cell growth at 0.1 uM incubated for 48 hrs by sulforhodamine B assay relative to control; assay type: functional; conditions: HCT-15, 48 h, read-out: Activity
[17] = tested on: SF-295; experiment: Growth inhibition of human SF295 cells assessed as cell growth at 0.1 uM incubated for 48 hrs by sulforhodamine B assay relative to control; assay type: functional; conditions: SF-295, 48 h, read-out: Activity
[18] = tested on: MDA-MB-468; experiment: Growth inhibition of human MDA-MB-468 cells assessed as cell growth at 0.1 uM incubated for 48 hrs by sulforhodamine B assay relative to control; assay type: functional; conditions: MDA-MB-468, 48 h, read-out: Activity
[19] = tested on: K562; experiment: Growth inhibition of human K562 cells assessed as cell growth at 1 uM incubated for 48 hrs by sulforhodamine B assay relative to control; assay type: functional; conditions: K562, 48 h, read-out: Activity
[20] = tested on: HOP-62; experiment: Growth inhibition of human HOP62 cells assessed as cell growth at 1 uM incubated for 48 hrs by sulforhodamine B assay relative to control; assay type: functional; conditions: HOP-62, 48 h, read-out: Activity
[21] = tested on: KM12; experiment: Growth inhibition of human KM12 cells assessed as cell growth at 1 uM incubated for 48 hrs by sulforhodamine B assay relative to control; assay type: functional; conditions: KM12, 48 h, read-out: Activity
[22] = tested on: UO-31; experiment: Growth inhibition of human UO31 cells assessed as cell growth at 1 uM incubated for 48 hrs by sulforhodamine B assay relative to control; assay type: functional; conditions: UO-31, 48 h, read-out: Activity
[23] = tested on: DU-145; experiment: Growth inhibition of human DU145 cells assessed as cell growth at 1 uM incubated for 48 hrs by sulforhodamine B assay relative to control; assay type: functional; conditions: DU-145, 48 h, read-out: Activity
[24] = tested on: HL-60(TB); experiment: Growth inhibition of human HL-60(TB) cells assessed as cell growth at 100 uM incubated for 48 hrs by sulforhodamine B assay relative to control; assay type: functional; conditions: HL-60, 48 h, read-out: Activity
[25] = tested on: K562; experiment: Growth inhibition of human K562 cells assessed as cell growth at 100 uM incubated for 48 hrs by sulforhodamine B assay relative to control; assay type: functional; conditions: K562, 48 h, read-out: Activity
[26] = tested on: MOLT-4; experiment: Growth inhibition of human MOLT4 cells assessed as cell growth at 100 uM incubated for 48 hrs by sulforhodamine B assay relative to control; assay type: functional; conditions: MOLT-4, 48 h, read-out: Activity
[27] = tested on: HCC 2998; experiment: Growth inhibition of human HCC2998 cells assessed as cell growth at 100 uM incubated for 48 hrs by sulforhodamine B assay relative to control; assay type: functional; conditions: HCC 2998, 48 h, read-out: Activity
[28] = tested on: HT-29; experiment: Growth inhibition of human HT-29 cells assessed as cell growth at 100 uM incubated for 48 hrs by sulforhodamine B assay relative to control; assay type: functional; conditions: HT-29, 48 h, read-out: Activity
[29] = tested on: MDA-MB-435; experiment: Growth inhibition of human MDA-MB-435 cells assessed as cell growth at 100 uM incubated for 48 hrs by sulforhodamine B assay relative to control; assay type: functional; conditions: MDA-MB-435, 48 h, read-out: Activity
[30] = tested on: MDA-MB-468; experiment: Growth inhibition of human MDA-MB-468 cells assessed as cell growth at 100 uM incubated for 48 hrs by sulforhodamine B assay relative to control; assay type: functional; conditions: MDA-MB-468, 48 h, read-out: Activity
[31] = read-out: pLC50 (the source's name) (converted)
[32] = read-out: LC50 (the source's name)

SMILES: COc1cc(Cl)cc(-c2nn(-c3cccc(NC(=O)Nc4cc(C(F)(F)F)cc(C(F)(F)F)c4)c3)cc2-c2ccncc2)c1
- growth at 10 µM [1]: -15.6%
- IC50 [2]: 0.35 µM
- GI50 ([2]; read-out: GI50): 0.353 µM
- TGI ([2]; read-out: TGI): 1.76 µM
- GI50 ([2]; read-out: pGI50 (converted)): 0.355 µM
- CC50 [2, 31]: 8.91 µM
- TGI ([2]; read-out: pTGI (converted)): 1.78 µM
- IC50 [3]: 0.45 µM
- GI50 ([3]; read-out: GI50): 0.453 µM
- CC50 [3, 32]: 0.0126 µM
- TGI ([3]; read-out: TGI): 2.21 µM
- GI50 ([3]; read-out: pGI50 (converted)): 0.457 µM
- CC50 [3, 31]: 12.9 µM
- TGI ([3]; read-out: pTGI (converted)): 2.82 µM
- IC50 [4]: 0.44 µM
- GI50 ([4]; read-out: GI50): 0.442 µM
- CC50 [4, 32]: 0.0939 µM
- TGI ([4]; read-out: TGI): 2.16 µM
- GI50 ([4]; read-out: pGI50 (converted)): 0.447 µM
- CC50 [4, 31]: 9.33 µM
- TGI ([4]; read-out: pTGI (converted)): 2.14 µM
- IC50 [5]: 0.66 µM
- GI50 ([5]; read-out: GI50): 0.658 µM
- TGI ([5]; read-out: TGI): 2.7 µM
- GI50 ([5]; read-out: pGI50 (converted)): 0.661 µM
- CC50 [5, 31]: 9.33 µM
- TGI ([5]; read-out: pTGI (converted)): 2.69 µM
- IC50 [6]: 0.33 µM
- GI50 ([6]; read-out: GI50): 0.334 µM
- TGI ([6]; read-out: TGI): 1.41 µM
- GI50 ([6]; read-out: pGI50 (converted)): 0.331 µM
- CC50 [6, 31]: 34.7 µM
- TGI ([6]; read-out: pTGI (converted)): 1.41 µM
- IC50 [7]: 0.39 µM
- GI50 ([7]; read-out: GI50): 0.35 µM
- CC50 [7, 32]: 0.0334 µM
- TGI ([7]; read-out: TGI): 3.59 µM
- GI50 ([7]; read-out: pGI50 (converted)): 0.389 µM
- CC50 [7, 31]: 33.1 µM
- TGI ([7]; read-out: pTGI (converted)): 3.63 µM
- growth at 0.01 µM [8]: 92%
- growth at 0.01 µM [9]: 93%
- growth at 0.01 µM [10]: 97%
- growth at 0.01 µM [11]: 99%
- growth at 0.1 µM [12]: 91%
- growth at 0.1 µM [13]: 87%
- growth at 0.1 µM [14]: 92%
- growth at 0.1 µM [15]: 105%
- growth at 0.1 µM [16]: 90%
- growth at 0.1 µM [17]: 91%
- growth at 0.1 µM [18]: 89%
- growth at 1 µM [19]: 18%
- growth at 1 µM [20]: 40%
- growth at 1 µM [21]: 31%
- growth at 1 µM [22]: 15%
- growth at 1 µM [23]: 27%
- growth at 100 µM [24]: -8%
- growth at 100 µM [25]: -42%
- growth at 100 µM [26]: -34%
- growth at 100 µM [27]: -70%
- growth at 100 µM [28]: -96%
- growth at 100 µM [29]: -81%
- growth at 100 µM [30]: -40%

SMILES: COc1cc(Cl)cc(-c2nn(-c3cccc(NC(=O)Nc4ccc(Cl)c(Cl)c4)c3)cc2-c2ccncc2)c1
- growth at 10 µM [1]: -19%
- GI50 ([2]; read-out: GI50): 1.29 µM
- CC50 [2, 32]: > 100 µM
- TGI ([2]; read-out: TGI): 44.8 µM
- GI50 ([2]; read-out: pGI50 (converted)): 1.29 µM
- CC50 [2, 31]: > 100 µM
- TGI ([2]; read-out: pTGI (converted)): 4.47 µM
- CC50 [3, 32]: > 100 µM
- GI50 ([3]; read-out: pGI50 (converted)): 2.4 µM
- CC50 [3, 31]: > 100 µM
- TGI ([3]; read-out: pTGI (converted)): 9.12 µM
- GI50 ([4]; read-out: GI50): 2.52 µM
- CC50 [4, 32]: > 100 µM
- TGI ([4]; read-out: TGI): 10 µM
- GI50 ([4]; read-out: pGI50 (converted)): 3.16 µM
- CC50 [4, 31]: > 100 µM
- TGI ([4]; read-out: pTGI (converted)): 11 µM
- GI50 ([5]; read-out: GI50): 1.54 µM
- CC50 [5, 32]: 8.54 µM
- TGI ([5]; read-out: TGI): 37.4 µM
- GI50 ([5]; read-out: pGI50 (converted)): 1.62 µM
- CC50 [5, 31]: 8.51 µM
- TGI ([5]; read-out: pTGI (converted)): 3.72 µM
- IC50 [6]: 1.56 µM
- GI50 ([6]; read-out: GI50): 1.56 µM
- CC50 [6, 32]: > 100 µM
- TGI ([6]; read-out: TGI): 29.4 µM
- GI50 ([6]; read-out: pGI50 (converted)): 1.55 µM
- CC50 [6, 31]: > 100 µM
- TGI ([6]; read-out: pTGI (converted)): 29.5 µM
- GI50 ([7]; read-out: GI50): 2.52 µM
- CC50 [7, 32]: > 100 µM
- TGI ([7]; read-out: TGI): 90.9 µM
- GI50 ([7]; read-out: pGI50 (converted)): 2.51 µM
- CC50 [7, 31]: > 100 µM
- TGI ([7]; read-out: pTGI (converted)): 91.2 µM
- growth at 0.01 µM [8]: 99%
- growth at 0.01 µM [9]: 92%
- growth at 0.01 µM [10]: 93%
- growth at 0.01 µM [11]: 96%
- growth at 0.1 µM [12]: 58%
- growth at 0.1 µM [13]: 88%
- growth at 0.1 µM [14]: 51%
- growth at 0.1 µM [15]: 96%
- growth at 0.1 µM [16]: 53%
- growth at 0.1 µM [17]: 57%
- growth at 0.1 µM [18]: 97%
- growth at 1 µM [19]: 67%
- growth at 1 µM [20]: 91%
- growth at 1 µM [21]: 72%
- growth at 1 µM [22]: 88%
- growth at 1 µM [23]: 93%
- growth at 100 µM [24]: -30%
- growth at 100 µM [25]: 3%
- growth at 100 µM [26]: -7%
- growth at 100 µM [27]: -7%
- growth at 100 µM [28]: -44%
- growth at 100 µM [29]: -33%
- growth at 100 µM [30]: -18%
